Results taken from patent publication US10920265B2, “Compounds and methods for detection of enzymes that remove methyl succinyl groups from epsilon-amino lysine moieties” (Enzo Life Sciences, Inc., priority 2011, dated 2021).
*: point of attachment. AMC = Cc1cc(=O)oc2cc(N*)ccc12

Target: T1, SIRT5 (Homo sapiens, UniProt Q9NXA8)
T1 sequence (Q9NXA8 37-310): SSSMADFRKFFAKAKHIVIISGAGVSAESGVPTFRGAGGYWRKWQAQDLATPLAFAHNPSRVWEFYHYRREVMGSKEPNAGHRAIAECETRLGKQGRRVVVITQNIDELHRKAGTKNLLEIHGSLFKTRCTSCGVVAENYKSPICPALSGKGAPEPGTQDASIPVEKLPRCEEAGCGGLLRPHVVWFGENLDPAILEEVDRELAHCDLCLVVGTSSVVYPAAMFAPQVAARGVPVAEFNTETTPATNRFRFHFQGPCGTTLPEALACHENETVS
Assay: SIRT5 desuccinylation/deacetylation of fluorogenic lysyl substrates, trypsin developer
Format: biochemical
Set-up: purchased Enzo Life Sciences BML-SE555
Settings: for Dependence of SIRT5 initial rate on substrate concentration: 20 min. at 37° C.
Protocol: FIG. 3 is graphs showing that SIRT5 catalyzes NAD^+-dependent desuccinylation of Ac-Lys(ε-succinyl)-AMC far more efficiently than NAD^+-dependent deacetylation of Ac-Arg-His-Lys-Lys(ε-acetyl)-AMC. Fifty μl reactions in Assay Buffer (50 mM Tris/HCl, pH 8.0, 137 mM NaCl, 2.7 mM KCl, 1 mM MgCl2, 1 mg/ml BSA) included 50 μM of either Ac-Lys(ε-succinyl)-AMC or Ac-Arg-His-Lys-Lys(ε-acetyl)-AMC, and, where indicated, 500 μM NAD^+ and 5 μg recombinant human SIRT5 (Enzo Life Sciences Cat. # BML-SE555). […] AMC fluorescence was read in a Cytofluor II plate-reading fluorimeter (Perseptive Biosystems) at wavelengths 360 nm (excitation)/460 nm (emission), Gain 54. Data represent the mean of two (No Enzyme) or three (+SIRT5) determinations and error bars the standard deviations. Panels A and B present the same data, but with the +SIRT5/+NAD^+/Ac-Lys(ε-succinyl)-AMC bar omitted from B to show the detail on the remaining bars. Statistically significant differences (Student's t-test) are indicated by asterisks as follows: *: p<0.02 vs. corresponding No Enzyme control; **: p<0.001 vs. corresponding −NAD^+ control; ***: p<3×10^−6 vs. both No Enzyme and −NAD^+ controls.
FIG. 4 is a graph showing that Ac-Lys(Succ.)-AMC enables SIRT5 assay at low enzyme concentrations. Fifty μl reactions in Assay Buffer (50 mM Tris/HCl, pH 8.0, 137 mM NaCl, 2.7 mM KCl, 1 mM MgCl2, 1 mg/ml BSA) included 2 or 10 μM Ac-Lys(ε-succinyl)-AMC, 500 μM NAD^+ and, where indicated, 5 ng recombinant human SIRT5 (Enzo Life Sciences Cat. # BML-SE555). […] AMC fluorescence was read in a Synergy 2 plate-reading fluorimeter (BioTek) at wavelengths 360 nm (excitation)/460 nm (emission), Gain 40. Data represent the mean of two (No Enzyme) or three (5 ng SIRT5) determinations and error bars the standard deviations. Statistically significant differences (Student's t-test) are indicated by asterisks as follows: *: p=0.002; **: p=0.009, each with respect to the corresponding “No SIRT5” samples.
FIG. 5 is graphs showing dependence of SIRT5 initial rate kinetics on the concentrations of Ac-Lys(Succ.)-AMC and Ac-Lys(Ac.)-AMC. Fifty μl desuccinylation or deacetylation reactions were performed as described earlier (FIG. 4), with the indicated concentrations of Ac-Lys(Succ.)-AMC or Ac-Lys(Ac.)-AMC and 1 mM NAD^+, for 20 min. at 37° C. Reactions with Ac-Lys(Succ.)-AMC contained 10 ng SIRT5 and those with Ac-Lys(Ac.)-AMC contained 5 SIRT5. Reactions were stopped and AMC cleaved from deacetylated or desuccinylated substrate by trypsin treatment as described earlier (FIG. 4). AMC fluorescence was read in a Synergy 2 plate-reading fluorimeter (BioTek) at wavelengths 360 nm (excitation)/460 nm (emission), Gain 40. Data represent the mean of the differences of three determinations with enzyme (10 ng or 5 SIRT5) from the mean of two no enzyme samples for each substrate concentration. Error bars are the standard deviations from those means. Fluorescence differences were converted to specific activities (pmol/min/μg) by measuring the fluorescence increase due to the addition a standard solution of AMC (5 μl of a […]).
FIG. 6 is a graph showing the dependence of SIRT5 initial rate kinetics of Ac-Lys(Succ.)-AMC desuccinylation on the concentration of NAD^+. Reaction conditions were as described for FIG. 5 but with a constant Ac-Lys(Succ.)-AMC concentration of 0.5 mM and the indicated concentrations of NAD^+. Data analysis and determination of kinetic parameters were as described (FIG. 5).
FIG. 12 is graphs showing that SIRT5 catalyzes NAD^+-dependent desuccinylation of (Ac-Lys(Succ.))2-R110 far more efficiently than NAD^+-dependent deacetylation of (Ac-Lys(Ac.))2-R110. Fifty μl reactions in Assay Buffer (50 mM Tris/HCl, pH 8.0, 137 mM NaCl, 2.7 mM KCl, 1 mM MgCl2, 1 mg/ml BSA) included 50 μM of either (Ac-Lys(Succ.))2-R110 or (Ac-Lys(Ac.))2-R110, and, where indicated, 500 μM NAD^+ and 5 μg recombinant human SIRT5 (Enzo Life Sciences Cat. # BML-SE555). […]

[1] = SIRT5, 50 μM substrate, 500 μM NAD^+

## Ac-Arg-His-Lys-Lys(ε-acetyl)-AMC (Ac-RHKK(Ac)-{AMC}; SMILES CC(=O)NCCCC[C@H](NC(=O)[C@H](CCCCN)NC(=O)[C@H](Cc1c[nH]cn1)NC(=O)[C@H](CCCNC(=N)N)NC(C)=O)C(=O)Nc1ccc2c(C)cc(=O)oc2c1) [Ac-RHKK(Ac)-AMC, p53 peptide fluorogenic deacetylase substrate, Cat. # BML-KI177, reference compound]
[1]
  Activity (pmol/min/μg): Ac-RHKK(Ac)-AMC/0.364 pmol/min/μg

## CC(=O)NCCCCC(NC(C)=O)C(=O)Nc1ccc2c(C)cc(=O)oc2c1 (stereo not shown) [Ac-Lys(Ac.)-AMC, Ac-Lys(ε-acetyl)-AMC, reference compound]
1 mM NAD^+
  Dependence of SIRT5 initial rate on substrate concentration: remains linear over the concentration range of the assay
[1]
  Activity: 0.0174 pmol/min/µg

## CC(=O)N[C@@H](CCCCNC(=O)CCC(=O)O)C(=O)Nc1ccc2c(C)cc(=O)oc2c1 [Compound 1, N—(N^α-acetyl-L-Lysine(N^ε-succinyl))-AMC]
5 μg SIRT5 (3 μM in 50 μl), 50 μM substrate, 60 min.
  Fraction of substrate desuccinylated: ~50%
5 μg SIRT5, 50 μM substrate, 500 μM NAD^+, 60 min.
  SIRT5/NAD^+ dependence of desuccinylation: entirely dependent on the presence of SIRT5 and NAD^+
5 μg SIRT5 per 50 μl, 50 μM substrate, 500 μM NAD^+, 60 min.
  Desuccinylation relative to deacetylation of Ac-Arg-His-Lys-Lys(ε-acetyl)-AMC: at least 250 fold
1 mM NAD^+
  Dependence of SIRT5 initial rate on substrate concentration: displays saturation kinetics
[1]
  Activity: 115 pmol/min/µg
Varied substrate: Lysyl, 1 mM NAD^+
  kcat: 0.26 s⁻¹
Varied substrate: NAD^+, constant 0.5 mM Ac-Lys(Succ.)-AMC
  kcat: 0.29 s⁻¹
